By EC50 is commonly meant the concentration at which the effect is half-maximal.

Molecules are shown by their SMILES. Like-named read-outs stand apart in the source and are kept apart here.

Our source for the EC50 and inhibition values is patent publication US20250092029A1 (THE WISTAR INSTITUTE OF ANATOMY AND BIOLOGY, priority 2022, published 2025).

Holding throughout (assay type): cell-based
The test system of experiment [1] is SARS-CoV-2 (USA-WA1/2020 variant). Put plainly: Virus CPE assay in Vero-E6 cells, USA-WA1/2020. To be noted: for EC50: USA-WA1/2020, Vero-E6, 4 days, read-out: EC50, inhibition of CPE; for inhibition at 3 µM: single treatment at 3 μM.
For experiment [2], the system named is SARS-CoV-2 B.1.1.7/Alpha variant. Put plainly: Virus CPE assay in Vero-E6 cells, B.1.1.7. To be noted: Severe acute respiratory syndrome coronavirus 2, Vero C1008, 96 h; B.1.1.7, Vero-E6, 4 days; read-out: EC50, inhibition of CPE.
Experiment [3] has as its system SARS-CoV-2 B.1.351/Beta variant. Put plainly: Virus CPE assay in Vero-E6 cells, B.1.351. The conditions noted are these: Severe acute respiratory syndrome coronavirus 2, Vero C1008, 96 h; B.1.351, Vero-E6, 4 days; read-out: EC50, inhibition of CPE.
Setting [4] is: Severe acute respiratory syndrome coronavirus 2, Vero C1008, 96 h.
[5] abbreviates: Severe acute respiratory syndrome coronavirus 2, Vero C1008, 5 experiments of 8-fold replicates, read-out: percent of wells with CPE inhibited.

On to `COc1cccc2[nH]c(C(=O)N[C@@H](CC(C)C)C(=O)N[C@@H](C[C@@H]3CCNC3=O)C(=O)COC(=O)c3c(Cl)cccc3Cl)cc12` [AP-8-001, reference compound], for which the 50% effective concentration (EC50) in experiment [1] (setting [4]) turned out to be 1.2 ± 0.3 µM.

As to `O=C(CN1C(=O)[C@@H](NC(=O)c2ccccc2)COc2ccccc21)N[C@@H](C[C@@H]1CCNC1=O)C(=O)COC(=O)c1c(Cl)cccc1Cl` [AP-8-011, (S)-3-(2-((S)-3-benzamido-4-oxo-3,4-dihydrobenzo[b][1,4]oxazepin-5(2H)-yl)acetamido)-2-oxo-4-((S)-2-oxopyrrolidin-3-yl)butyl 2,6-dichlorobenzoate], in experiment [1] (setting [4]), the EC50 amounted to 14.1 ± 3.6 µM.

Turning to `O=C(CN1C(=O)[C@@H](NC(=O)OCc2ccccc2)COc2ccccc21)N[C@@H](C[C@@H]1CCNC1=O)C(=O)COC(=O)c1c(Cl)cccc1Cl` [AP-8-013, (S)-3-(2-((S)-3-(benzyloxycarbonylamino)-4-oxo-3,4-dihydrobenzo[b][1,4]oxazepin-5(2H)-yl)acetamido)-2-oxo-4-((S)-2-oxopyrrolidin-3-yl)butyl 2,6-dichlorobenzoate], the EC50 in experiment [1] (setting [4]) is 12.8 ± 1.6 µM; in experiment [2], 10.6 ± 1 µM; in experiment [3], 5.5 ± 0.4 µM. Moreover, the inhibition at 3 µM in experiment [1] (setting [5]) was 7.5%.

Consider `CC(C)C[C@H](NC(=O)OCc1ccccc1)C(=O)N[C@@H](C[C@@H]1CCNC1=O)C(O)S(=O)(=O)O` (stereo partly drawn) [GC-376], for which the half-maximal effective concentration (EC50) in experiment [1] (setting [4]) came to 3.4 ± 0.9 µM; in experiment [1] it was 3.3 ± 1.2 µM; in experiment [2], 1.3 ± 0.6 µM.

For the compound `CCC(CC)COC(=O)[C@H](C)N[P@](=O)(OC[C@H]1O[C@@](C#N)(c2ccc3c(N)ncnn23)[C@H](O)[C@@H]1O)Oc1ccccc1` [Remdesivir], the EC50 in experiment [1] (setting [4]) was determined as 3.1 ± 0.7 µM. For the same compound, in experiment [1] (Severe acute respiratory syndrome coronavirus 2, Vero C1008, single treatment at 1 μM, 5 experiments of 8-fold replicates, read-out: percent of wells with CPE inhibited), the inhibition at 1 µM stood at 2.5 ± 2.5%. Further, the inhibition at 3 µM in experiment [1] (setting [5]) was 15 ± 9.2%.
